Reference: patent US20160199497A1, “Cholesterol Ester-Depleting Nanomedicine for Non-toxic Cancer Chemotherapy” (Purdue Research Foundation, priority 2014, published 2016)

Key:
tumors = assay: Combination of avasimibe and gemcitabine in mice with tumors; assay type: in vivo; details: molar ratio about 5:1 to about 15:1 avasimibe to gemcitabine
[1] = molecular target: HSA (human serum albumin) (Homo sapiens, UniProt P02768); assay: Avasimibe binding to HSA: circular dichroism, Trp-214 fluorescence quenching, warfarin competitive binding
Sequence of HSA (human serum albumin) (P02768 25-609): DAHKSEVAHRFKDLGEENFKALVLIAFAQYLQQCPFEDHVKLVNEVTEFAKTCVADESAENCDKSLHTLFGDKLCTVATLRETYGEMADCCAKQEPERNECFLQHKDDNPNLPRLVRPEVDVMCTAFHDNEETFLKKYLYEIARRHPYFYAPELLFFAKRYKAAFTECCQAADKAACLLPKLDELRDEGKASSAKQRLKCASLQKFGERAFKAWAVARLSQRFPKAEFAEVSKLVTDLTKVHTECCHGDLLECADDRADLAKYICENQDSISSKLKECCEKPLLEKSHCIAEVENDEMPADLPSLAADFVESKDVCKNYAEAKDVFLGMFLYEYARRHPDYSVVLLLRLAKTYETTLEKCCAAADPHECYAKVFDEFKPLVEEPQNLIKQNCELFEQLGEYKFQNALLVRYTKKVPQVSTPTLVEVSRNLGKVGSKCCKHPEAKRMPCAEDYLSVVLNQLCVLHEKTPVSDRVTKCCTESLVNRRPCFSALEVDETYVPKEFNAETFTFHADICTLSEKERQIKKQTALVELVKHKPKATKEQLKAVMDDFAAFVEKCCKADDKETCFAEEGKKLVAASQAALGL
From the text: A quartz cell of 1 mm path length was used for spectrum measurement (190-260 nm). The spectra were collected with a data pitch of 1 nm, a scan speed of 10 nm per minute, and bandwidth of 1 nm. Each spectrum was the average of three scans.

pancreatic cancer cells [2] = assay: Biochemical assay of free cholesterol in cells; assay type: cell-based, human; details: low to high concentration
Description: Lipid extraction from cell pellets and tissues was performed according to Folch et al (Folch J et al. (1957) J Biol Chem 226(1):497-509.). Cells with indicated treatments were collected and counted. CE and free cholesterol were measured according to the manufacturer's protocol (Amplex Red Cholesterol kit from Molecular Probes), and finally normalized by cell number.

PC3 cells = assay: Cell viability IC50 in PC3 cells; assay type: cell-based; details: Homo sapiens, PC-3
pancreatic cancer cells [3] = assay: Fluorescence imaging of DiI labeled LDL uptake; assay type: cell-based, human
Description: DiI labeled LDL was made following previously described method (de Smidt P C & van Berkel T J C (1990) Cancer Res 50(23):7476-7482.). Cells were cultured in medium containing 10% lipodeficient serum with or without avasimibe treatment for 2 days. Then DiI-LDL was added to the medium at 50 μg/ml for 3 hours. Fluorescence images were acquired immediately after 3 h incubation using confocal microscope. The LDL uptake was quantified using ImageJ by analyzing the area fraction of uptake LDL particles out of the total cellular area.

[4] = test system: MIA PaCa-2 orthotopic tumors; assay: Orthotopic mouse model of pancreatic cancer (MIA PaCa-2 luc/mCherry); assay type: in vivo
Description: In vivo study in orthotopic mouse model: All animal experiments were conducted following protocols approved by Purdue Animal Care and Use Committee (PACUC). NOD/scid/IL2R γ null (NSG) mice were purchased from In Vivo Therapeutics Core at Indiana University Simon Cancer Center (Indiana University, IN) under a Material Transfer Agreement with Jackson Laboratories, Inc. Orthotopic mouse model of pancreatic cancer was established following previously described protocol (Gu D, et al. (2013) Mol Cancer Ther 12(6):1038-1048.). MIA PaCa-2 cells with stable expression of luciferase and mCherry were collected and suspended at a concentration of 10×10^6 cells/ml. A total of 5×10^5 tumor cells in 50 μl medium was directly injected into the pancreas of NSG mice at 4-6 weeks old. After recovery from surgery, tumor growth was monitored by bioluminescent imaging using In Vivo Imaging System (IVIS).
In these studies, mice were randomly divided into two groups. For the treatment with avasimibe at 15 mg/kg, intraperitoneal (IP) injection was used on a daily base, starting one week after tumor cell implantation. After treated for 4 weeks, all the mice were sacrificed. Tumors and metastatic lesions in abdominal cavity, lymph nodes, liver, spleen, kidney, lung and heat were visualized with IVIS by mCherry fluorescent signal. Tumor volume and weight were measured ex vivo. Histological examination was performed to tumor and organ tissue slides after stained with Hematoxylin and eosin (H&E).
Murine paraffin-embedded slides were deparaffinized and rehydrated. Then antigens were retrieved in antigen unmasking solution (Vector Laboratories) with a 2100-Retriever (PickCell Laboratories). Samples were used to TUNEL assay (Roche, 11684817910) according to manufacturer's protocol. Fluorescent images were taken using Nikon A1R confocal microscopy under 40× objective.

[5] = Blood bioavailability / pharmacokinetics of avasimibe by LC-MS; assay type: in vivo, nude mice; details: nude, mouse, whole blood; oral avasimibe 15 mg/kg; read-out: area under curve (AUC) of avasimibe
Description: To compare the blood-bioavailability of avasimibe for oral and intravenous administrations, avasimibe solution in PBS (15 mg/kg) was orally administered to nude mice without tumors (n=3) using a plastic feeding tube (20 GA×38 mm). Avasimin solution in PBS (75 mg/kg, containing 15 mg/kg avasimibe) was intravenously administered to nude mice without tumor (n=3) through the tail vein. Blood samples (2 μl) were collected from the dorsal pedal vein at different time points post administration. […] To extract avasimibe, acetone (6 μl) was added to the blood solution, vortexed, and then the solution was centrifuged (×5000 g, 5 min). The supernatant (6 μl) was collected and dried under vacuum. The sample was stored at −20° C., and dissolved in 50 μl of methanol just before analysis. A linear standard curve of avasimibe in blood ranging of 0.01-100 μg/ml was created using the same extraction method described above. avasimibe concentration was determined using a liquid chromatography-mass spectroscopy (LC-MS) (Agilent 1200 HPLC-Agilent 6460 QQQ mass spec). […]
Based on this model, pharmacokinetic values for avasimibe delivered by intravenous administration of avasimin were determined including the initial volume of distribution, […]
The terminal and distribution half-times for two-compartment model were measured using the equations above, described in a previous report.

MIA PaCa-2 = assay: MTT cell viability, MIA PaCa-2; assay type: cell-based, human
Description: (§1) Cell viability was measured by Thiazolyl Blue Tetrazolium Blue (MTT) colorimetric assay (Sigma). Cell migration and invasion assays were performed in Transwell chambers (Corning) coated with and without Matrigel (BD Bioscience) respectively. 20% FBS and 0.2 ng/ml EGF were used as chemoattractant. 12 h (migration) or 24 h (invasion) after cells were seeded on top of the membrane, penetrating cells were stained with PI and counted under confocal microscope.

[6] = Tissue distribution of avasimibe by LC-MS, 2 hr post administration; assay type: in vivo, PC3 tumor xenograft nude mice; details: oral avasimibe 15 mg/kg
Description: To measure the bioavailability of avasimibe in tissues, avasimin solution in PBS (75 mg/kg, containing 15 mg/kg avasimibe) was intravenously administered to PC3 tumor xenograft nude mice (n=3) through the tail vein. avasimibe solution in PBS (15 mg/kg) was also orally administered to PC3 tumor xenograft nude mice (n=3). At 2 hr-post injection, the mice were sacrificed, and the tissues and urine were harvested and weighed. After adding PBS (100 μl per […] tissue), the tissues were homogenized using a bead based homogenizer (Precellys®24, bertin technologies). Avasimibe was extracted from the homogenized tissue solution according to the same procedure used in avasimibe extraction from blood sample. Avasimibe in the tissue, urine, and feces specimens was quantified by LC-MS using the same conditions as the blood-bioavailability study. The amounts of avasimibe were quantitatively determined based on the calibration curve of avasimibe in blood.

[7] = test system: GRP78, ATF4, CHOP in pancreatic cancer cells; assay: Immunoblotting of ER stress markers; assay type: cell-based, human; details: time course
Description: After indicated treatments, cells were harvested and lysed in AMI lysis buffer (Active Motif) supplemented with protease and phosphatase inhibitor cocktail. Protein concentration was determined using the Bio-Rad protein assay kit. Protein extraction was subjected to immunoblotting with the antibodies against PTEN (Cell Signaling, […]), HMG CoA reductase (Biovision, 3952-100), ACAT-1 (Santa Cruz, sc-69836), GRP78 (Santa Cruz, sc-13968), ATF4 (Cell Signaling, 11815), CHOP (Cell Signaling, 2895), p-ERK1/2 (Cell Signaling, 4370S), ERK1/2 (Cell Signaling, 9102), p-Akt (Cell Signaling, […]), Akt (Cell Signaling, 4691), caveolin-1 (Cell Signaling, […]), SREBP-1 (Santa Cruz, 13551), and β-actin (Sigma, A5441). β-Actin was used as loading control for normalization.

PANC-1 = assay: MTT cell viability, PANC-1; assay type: cell-based, human
Description: as §1

HPDE6 = assay: MTT cell viability, HPDE6; assay type: cell-based; details: Homo sapiens; normal cells
Description: as §1

pancreatic cancer cells [8] = assay: CE level in pancreatic cancer cells (Raman spectromicroscopy, ESI-MS); assay type: cell-based, human
Description: Label-free Raman spectromicroscopy, including stimulated Raman scattering (SRS) microscopy, coherent anti-stokes Raman scattering (CARS) microscopy and spontaneous Raman spectroscopy, was performed on unstained tissue slices (˜15 μm) or cells without any processing or labeling. SRS imaging was conducted using a femtosecond laser source, with the laser beating frequency tuned to the C-H stretching vibration mode at 2845 cm−1. The typical acquisition time for a 512×512 pixel image was 1.12 second.
CARS imaging and confocal Raman spectral analysis from individual LDs were performed on a single platform as described previously (40). A 5-picosecond laser at 707 nm was used as excitation beam for Raman spectral acquisition. Acquisition time for a typical spectra from individual LDs was 20 s, with the beam power maintained around 15 mW at sample. For each specimen, at least 10 spectra from individual LDs in different locations or cells were obtained.
LD amount was quantified based on the SRS images using software ImageJ. […] Area fraction of LDs out of total area of tissues or cells were measured to quantize the LD amount. […] The percentage of CE out of total lipids was used to quantize the CE level.
Lipids were extracted as described above. Cells with indicated treatments were collected and counted. […]

MIA PaCa-2 cell = assay: Transwell cell migration and invasion assays; assay type: cell-based, human
Description: as §1

MIA PaCa-2 cells = assay: Annexin V/propidium iodide staining and cell cycle analysis by flow cytometry; assay type: cell-based, human
[9] = test system: cancer cells (PC3, MIA-PaCa2, A549, HCT116) and normal cells (hVSMC, BR5); assay: Cell viability of cancer and normal cells; assay type: cell-based, human; details: conventional chemotherapeutics, comparison
[10] = 15 mg/kg per day intraperitoneally, 4 weeks

CC(C)c1cc(C(C)C)c(CC(=O)NS(=O)(=O)Oc2c(C(C)C)cccc2C(C)C)c(C(C)C)c1 [avasimibe]
effect in combination with gemcitabine (tumors): synergistic effect | replacement of warfarin at the primary binding site of HSA ([1]; avasimibe:HSA 16:1, warfarin:HSA 10:1): complete replacement of warfarin | binding affinity to HSA, compared with warfarin ([1]; inferred from complete replacement of warfarin): > 189000 M⁻¹ | free cholesterol levels in cells (pancreatic cancer cells [2]): gradually increased | IC50 (PC3 cells): 17 µM | uptake of DiI labeled LDL (pancreatic cancer cells [3]): significantly reduced uptake of LDL | CE amount in tumor (SRS imaging and Raman) ([4]; 15 mg/kg per day intraperitoneally): Reduction of CE amount | body weight [4, 10]: did not induce body weight loss | metastatic lesions in lymph nodes and distant organs [4, 10]: largely suppressed | tumor size, tumor growth rate, tumor volume and weight [4, 10]: significantly suppressed | apoptotic cells in tumor tissues (TUNEL) ([4]; mouse, in vivo): Increased apoptotic cells | free cholesterol in mouse pancreatic tumor tissues ([4]; mouse, in vivo): Increased free cholesterol | AUC [5]: 3250 ng·h/mL | proliferation rate of MIA PaCa-2 cells (MIA PaCa-2; 10 μM): significantly reduced the proliferation rate | IC50 (MIA PaCa-2; Homo sapiens, MIA PaCa-2): 11 µM | excretion of avasimibe through feces [6]: considerable amount of avasimibe was excreted through the feces | avasimibe in the tumor tissue ([6]; 2 hr): not detectable | main tissue of avasimibe distribution ([6]; 2 hr): most avasimibe was found in the liver tissue | ATF4 level [7]: increase of transcription factor ATF4 within 12 hours | CHOP expression [7]: appeared after 12 hour treatment and increased from 12 to 48 hour | GRP78 expression level [7]: gradually increased over time | proliferation rate of PANC-1 cells (PANC-1; 10 μM): significantly reduced the proliferation rate | IC50 (PANC-1; Homo sapiens, PANC-1): 23.6 µM | IC50 (HPDE6): 52.8 µM | CE level in pancreatic cancer cells (pancreatic cancer cells [8]): effectively removed CE | cell invasion rate (MIA PaCa-2 cell; transwell with Matrigel, 24 h): significantly reduced | cell migration rate (MIA PaCa-2 cell; transwell, 12 h): significantly reduced | number of apoptotic cells (MIA PaCa-2 cells): largely increased

Nc1ccn([C@@H]2O[C@H](CO)[C@@H](O)C2(F)F)c(=O)n1 [gemcitabine]
selectivity of cytotoxic effect [9]: non-selective cytotoxic effects
